Several values for one entry are separate records, joined by “and”; a condition that tells them apart may be missing. Equal entries are not always repeated. Where two headings read alike, the source gives them in different places.
How the values were obtained:
[1] = Pharmacokinetic analysis of vepafestinib in rats (microdialysis PFC, CSF, plasma); format: in vivo, male Han Wistar rats; conditions: for concentration at 480 min: read-out: Concentration in Cerebrospinal fluid
[2] = tested on: RET phosphorylation at Y905 and Y1062 and downstream effectors; assay: Western blotting of serum-starved LUAD-0002AS1, ECLC5B and TT cells, 2 h; format: cell-based, human; conditions: 50 nM
Protocol: Serum-starved cells were treated with 5, 50 or 500 nM inhibitor for 2 h, and then protein phosphorylation levels were examined (Fig. 3a). […] We performed additional dose–response western blotting studies using lower inhibitor concentrations. Immunoblots were quantitated by densitometry, and the EC50 for phosphorylation inhibition was estimated (Extended Data Fig. 4). […] Quantitation of immunoblots is shown in Extended Data Fig. 4c,d.
Following treatment, whole-cell extracts were prepared and subjected to western blotting analysis. Representative immunoblots from two independent experiments are shown. GAPDH was used as a loading control. RSK, ribosomal protein S6 kinase; S6RP, S6 ribosomal protein. b,c, Cells were plated in 96-well plates and treated for 96 h with the inhibitors shown. The number of viable cells was assessed using alamarBlue. b, Viability curves for control HBEC cells (HBECp53-EV) and HBEC cells with the CCDC6-RET fusion (HBECp53-RET) are shown at the left. […] Data were analyzed by non-linear regression, and IC50 values were estimated by curve fitting. […]
See Supplementary Table 4 for a complete list of antibodies and dilutions used. […] The bands of the target proteins were detected with SuperSignal West Dura Extended Duration Substrate (Thermo Fisher Scientific) by the Amersham Imager 600 QC (Cytiva) or exposed to X-ray film and visualized using a Kodak X-ray developer.

[3] = target: T1, panel of 255 (vepafestinib) or 256 (all other inhibitors) recombinant kinases (Homo sapiens, UniProt Q13177); assay: Kinase selectivity profiling at a single concentration (Carna Biosciences); format: biochemical; conditions: 23 nM
T1 construct: purchased Carna Biosciences
T1 sequence (Q13177 whole entry): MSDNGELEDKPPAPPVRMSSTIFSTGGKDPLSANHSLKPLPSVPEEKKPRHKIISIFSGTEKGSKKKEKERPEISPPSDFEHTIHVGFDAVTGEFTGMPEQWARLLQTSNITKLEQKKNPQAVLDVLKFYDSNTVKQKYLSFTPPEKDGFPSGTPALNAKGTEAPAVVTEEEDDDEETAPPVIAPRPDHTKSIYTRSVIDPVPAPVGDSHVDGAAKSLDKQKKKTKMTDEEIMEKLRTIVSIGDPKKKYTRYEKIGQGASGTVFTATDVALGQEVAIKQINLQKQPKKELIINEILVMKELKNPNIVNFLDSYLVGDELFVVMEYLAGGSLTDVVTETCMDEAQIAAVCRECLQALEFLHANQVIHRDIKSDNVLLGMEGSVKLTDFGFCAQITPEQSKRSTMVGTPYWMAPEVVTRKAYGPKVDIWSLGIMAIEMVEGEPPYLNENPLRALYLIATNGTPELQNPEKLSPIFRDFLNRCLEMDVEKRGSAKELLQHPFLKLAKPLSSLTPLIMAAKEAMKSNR

[4] = target: T2, panel of 255 (vepafestinib) or 256 (all other inhibitors) recombinant kinases (Homo sapiens, UniProt P31749); assay: as above; format: biochemical; conditions: 23 nM
T2 construct: purchased Carna Biosciences
T2 sequence (P31749 whole entry): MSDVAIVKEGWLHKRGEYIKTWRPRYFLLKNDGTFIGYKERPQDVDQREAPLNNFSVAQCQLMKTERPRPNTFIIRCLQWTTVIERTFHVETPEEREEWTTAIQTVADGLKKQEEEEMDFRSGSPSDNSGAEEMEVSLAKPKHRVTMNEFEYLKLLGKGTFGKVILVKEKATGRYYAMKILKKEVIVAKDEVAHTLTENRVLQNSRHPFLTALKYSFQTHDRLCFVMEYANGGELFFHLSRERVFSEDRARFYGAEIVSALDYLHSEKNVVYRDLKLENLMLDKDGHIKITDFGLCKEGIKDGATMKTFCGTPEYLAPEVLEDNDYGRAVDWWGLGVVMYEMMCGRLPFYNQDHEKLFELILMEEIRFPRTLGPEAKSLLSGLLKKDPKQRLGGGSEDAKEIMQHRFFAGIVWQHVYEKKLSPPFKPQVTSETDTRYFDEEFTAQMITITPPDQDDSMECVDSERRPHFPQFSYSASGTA

Work on COCc1ccc(NC(=O)c2c(C#CCN3CCOCC3)n(C3(C)CC3)c3ncnc(N)c23)cc1 [Vepafestinib, 4-amino-N-[4-(methoxymethyl)phenyl]-7-(1-methylcyclopropyl)-6-[3-(morpholin-4-yl)prop-1-yn-1-yl]-7H-pyrrolo[2,3-d]pyrimidine-5-carboxamide] yielded a concentration at 30 min ([1]; male, Han Wistar, rat, plasma (total), oral, 50 mg/kg, 30 min, individual rats, read-out: Concentration in Rats, Plasma (total)) of 15100 nM, a concentration at 60 min ([1]; male, Han Wistar, rat, plasma (total), oral, 50 mg/kg, 60 min, individual rats, read-out: Concentration in Rats, Plasma (total)) of 10400 nM and a concentration at 120 min ([1]; male, Han Wistar, rat, plasma (total), oral, 50 mg/kg, 120 min, individual rats, read-out: Concentration in Rats, Plasma (total)) of 9260 nM. For the same compound, the concentration at 30 min ([1]; male, Han Wistar, rat, plasma, oral, 50 mg/kg, rats, 50 mg/kg, 30 min, individual animals, read-out: Concentration in Plasma (total)) was 15100 nM, the concentration at 60 min ([1]; male, Han Wistar, rat, plasma, oral, 50 mg/kg, rats, 50 mg/kg, 60 min, individual animals, read-out: Concentration in Plasma (total)) was 10400 nM and the concentration at 30 min ([1]; male, Han Wistar, rat, prefrontal cortex microdialysate, oral, 3 mg/kg, 30 min, individual rats, read-out: Concentration in Rats, Prefrontal cortex) was 7.04 nM. For the same compound, the concentration at 90 min ([1]; male, Han Wistar, rat, prefrontal cortex microdialysate, oral, 3 mg/kg, 90 min, individual rats) was 102 nM, the concentration at 120 min ([1]; male, Han Wistar, rat, prefrontal cortex microdialysate, oral, 3 mg/kg, 120 min, individual rats, read-out: Concentration in Rats, Prefrontal cortex) was 129 nM and the concentration at 150 min ([1]; male, Han Wistar, rat, prefrontal cortex microdialysate, oral, 3 mg/kg, 150 min, individual rats) was 101 nM. For the same compound, the concentration at 30 min ([1]; male, Han Wistar, rat, prefrontal cortex microdialysate, oral, 10 mg/kg, 30 min, individual rats, read-out: Concentration in Rats, Prefrontal cortex) was 17.5 nM, the concentration at 60 min ([1]; male, Han Wistar, rat, prefrontal cortex microdialysate, oral, 10 mg/kg, 60 min, individual rats, read-out: Concentration in Rats, Prefrontal cortex) was 362 nM and the concentration at 90 min ([1]; male, Han Wistar, rat, prefrontal cortex microdialysate, oral, 10 mg/kg, 90 min, individual rats) was 514 nM. It also gave a concentration at 120 min ([1]; male, Han Wistar, rat, prefrontal cortex microdialysate, oral, 10 mg/kg, 120 min, individual rats, read-out: Concentration in Rats, Prefrontal cortex) of 479 nM, a concentration at 150 min ([1]; male, Han Wistar, rat, prefrontal cortex microdialysate, oral, 10 mg/kg, 150 min, individual rats) of 270 nM and a concentration at 180 min ([1]; male, Han Wistar, rat, prefrontal cortex microdialysate, oral, 10 mg/kg, 180 min, individual rats, read-out: Concentration in Rats, Prefrontal cortex) of 259 nM. It also gave a concentration at 120 min ([1]; male, Han Wistar, rat, prefrontal cortex microdialysate, oral, 50 mg/kg, rats, 50 mg/kg, 120 min, individual animals, read-out: Concentration in Prefrontal cortex) of 972 nM, a concentration at 1500 min ([1]; male, Han Wistar, rat, prefrontal cortex microdialysate, oral, 50 mg/kg, rats, 50 mg/kg, 1500 min, individual animals, read-out: Concentration in Prefrontal cortex) of 71.6 nM and a concentration at 120 min ([1]; male, Han Wistar, rat, prefrontal cortex microdialysate, oral, 50 mg/kg, 120 min, individual rats, read-out: Concentration in Rats, Prefrontal cortex) of 972 nM. For the same compound, the concentration at 1500 min ([1]; male, Han Wistar, rat, prefrontal cortex microdialysate, oral, 50 mg/kg, 1500 min, individual rats, read-out: Concentration in Rats, Prefrontal cortex) was 71.6 nM, the concentration at 480 min ([1]; rats, 50 mg/kg, 30 min, individual animals, 50 mg/kg) was 1290 nM and 1440 nM and 2760 nM and 1580 nM and the concentration at 60 min ([1]; rats, 50 mg/kg, 30 min, individual animals, 50 mg/kg, read-out: Concentration in Plasma (total)) was 15700 nM and 13100 nM and 11800 nM. For the same compound, the concentration at 1500 min ([1]; rats, 50 mg/kg, 30 min, individual animals, 50 mg/kg, read-out: Concentration in Prefrontal cortex) was 30.2 nM and 10.2 nM and 22.2 nM and 39.9 nM, the concentration at 480 min ([1]; rats, 50 mg/kg, 60 min, individual animals, 50 mg/kg) was 648 nM and 1420 nM and 2370 nM and 1210 nM and the concentration at 60 min ([1]; rats, 50 mg/kg, 60 min, individual animals, 50 mg/kg, read-out: Concentration in Plasma (total)) was 11900 nM and 11400 nM and 11800 nM. The concentration at 1500 min ([1]; rats, 50 mg/kg, 60 min, individual animals, 50 mg/kg, read-out: Concentration in Prefrontal cortex) was 883 nM and 396 nM and 691 nM and 1135 nM, the concentration at 1500 min ([1]; rats, 50 mg/kg, 90 min, individual animals, 50 mg/kg, read-out: Concentration in Prefrontal cortex) was 1549 nM and 742 nM and 1277 nM and 1593 nM and the concentration at 480 min ([1]; rats, 50 mg/kg, 120 min, individual animals, 50 mg/kg) was 1780 nM and 1160 nM and 2340 nM and 756 nM. The concentration at 60 min ([1]; rats, 50 mg/kg, 120 min, individual animals, 50 mg/kg, read-out: Concentration in Plasma (total)) was 16400 nM and 8330 nM and 13200 nM, the concentration at 1500 min ([1]; rats, 50 mg/kg, 120 min, individual animals, 50 mg/kg, read-out: Concentration in Prefrontal cortex) was 1089 nM and 1363 nM and 1680 nM and the concentration at 1500 min ([1]; rats, 50 mg/kg, 150 min, individual animals, 50 mg/kg, read-out: Concentration in Prefrontal cortex) was 804 nM and 1293 nM and 1118 nM and 1680 nM. The concentration at 60 min ([1]; rats, 50 mg/kg, 180 min, individual animals, 50 mg/kg, read-out: Concentration in Plasma (total)) was 6200 nM and 14400 nM and 6310 nM and 8540 nM, the concentration at 1500 min ([1]; rats, 50 mg/kg, 180 min, individual animals, 50 mg/kg, read-out: Concentration in Prefrontal cortex) was 761 nM and 1438 nM and 957 nM and 2162 nM and the concentration at 1500 min ([1]; rats, 50 mg/kg, 210 min, individual animals, 50 mg/kg, read-out: Concentration in Prefrontal cortex) was 555 nM and 1724 nM and 852 nM and 1666 nM. The concentration at 480 min ([1]; rats, 50 mg/kg, 240 min, individual animals, 50 mg/kg) was 1730 nM and 963 nM and 1170 nM and 522 nM, the concentration at 60 min ([1]; rats, 50 mg/kg, 240 min, individual animals, 50 mg/kg, read-out: Concentration in Plasma (total)) was 3870 nM and 13700 nM and 7630 nM and 7250 nM and the concentration at 1500 min ([1]; rats, 50 mg/kg, 240 min, individual animals, 50 mg/kg, read-out: Concentration in Prefrontal cortex) was 463 nM and 1651 nM and 722 nM and 1680 nM. The concentration at 1500 min ([1]; rats, 50 mg/kg, 270 min, individual animals, 50 mg/kg, read-out: Concentration in Prefrontal cortex) was 359 nM and 1856 nM and 877 nM and 1281 nM, the concentration at 60 min ([1]; rats, 50 mg/kg, 300 min, individual animals, 50 mg/kg, read-out: Concentration in Plasma (total)) was 4840 nM and 9390 nM and 5350 nM and 4540 nM and the concentration at 60 min ([1]; rats, 50 mg/kg, 360 min, individual animals, 50 mg/kg, read-out: Concentration in Plasma (total)) was 5830 nM and 7730 nM and 5370 nM and 2620 nM. For the same compound, the concentration at 480 min ([1]; rats, 50 mg/kg, 480 min, individual animals, 50 mg/kg) was 435 nM and 486 nM and 321 nM, the concentration at 60 min ([1]; rats, 50 mg/kg, 480 min, individual animals, 50 mg/kg, read-out: Concentration in Plasma (total)) was 134 nM and 4450 nM and 4860 nM and 4260 nM and the concentration at 1500 min ([1]; rats, 50 mg/kg, 1500 min, individual animals, 50 mg/kg, read-out: Concentration in Prefrontal cortex) was 123 nM. For the same compound, the “inhibition of phosphorylation of RET and downstream effectors” value [2] was “Near-complete inhibition”, the “% Inhibiton PAK2” value [3] was 19% and the “% Inhibiton AKT1” value [4] was 7.9%.

Source: PMC10518257 (Nature Cancer, 2023)
